Data: article PMC5218480 (PLoS ONE, 2017)

Test system: MV-4-11 cells
Experiment: Gene expression microarray analysis (Affymetrix PrimeView) and GSEA
Type: cell-based, human
Parameters: RFU PODN (11730768_x_at) / Fold change /veh PODN (11730768_x_at) / RFU LINC00158 (11744669_a_at) / Fold change /veh LINC00158 (11744669_a_at) / RFU DUSP10 (11751237_a_at) / Fold change /veh DUSP10 (11751237_a_at) / RFU ID3 (11757404_x_at) / Fold change /veh ID3 (11757404_x_at) / RFU PLEKHG5 (11737974_s_at) / Fold change /veh PLEKHG5 (11737974_s_at) / RFU LRRC4B (11730491_at) / Fold change /veh LRRC4B (11730491_at) / RFU GIMAP4 (11747438_a_at) / Fold change /veh GIMAP4 (11747438_a_at) / RFU KRT8 (11758183_x_at) / Fold change /veh KRT8 (11758183_x_at) / RFU CNN1 (11734310_a_at) / Fold change /veh CNN1 (11734310_a_at) / RFU VPS37D (11726825_at) / Fold change /veh VPS37D (11726825_at) / RFU C10orf10 (11716522_x_at) / Fold change /veh C10orf10 (11716522_x_at) / RFU KIR2DL2 /// KIR2DL4 /// KIR2DL5A /// KIR2DL5B /// KIR2DS1 /// KIR2DS2 /// KIR2DS3 /// KIR2DS4 /// KIR3DL3 /// KIR3DL3 /// KIR3DS1 (11738374_at) / Fold change /veh KIR2DL2 /// KIR2DL4 /// KIR2DL5A /// KIR2DL5B /// KIR2DS1 /// KIR2DS2 /// KIR2DS3 /// KIR2DS4 /// KIR3DL3 /// KIR3DL3 /// KIR3DS1 (11738374_at) / RFU C1QL1 (11718748_at) / Fold change /veh C1QL1 (11718748_at) / RFU TMPRSS4 (11747572_a_at) / Fold change /veh TMPRSS4 (11747572_a_at) / RFU HAMP (11756126_x_at) / Fold change /veh HAMP (11756126_x_at) / RFU RNFT2 (11725882_a_at) / Fold change /veh RNFT2 (11725882_a_at) / RFU NR4A2 (11747474_a_at) / Fold change /veh NR4A2 (11747474_a_at) / RFU ABCC12 (11746883_a_at) / Fold change /veh ABCC12 (11746883_a_at) / RFU TMEM136 (11760407_x_at) / Fold change /veh TMEM136 (11760407_x_at) / RFU CLDN22 /// WWC2 (11732394_at) / Fold change /veh CLDN22 /// WWC2 (11732394_at) / RFU HLA-DPB1 (11760878_x_at) / Fold change /veh HLA-DPB1 (11760878_x_at) / RFU SPINT1 (11716480_a_at) / Fold change /veh SPINT1 (11716480_a_at) / RFU GAP43 (11754022_s_at) / Fold change /veh GAP43 (11754022_s_at) / RFU A4GNT (11735810_at) / Fold change /veh A4GNT (11735810_at) / RFU PRB3 (11715151_x_at) / Fold change /veh PRB3 (11715151_x_at) / RFU TUBB4B (11761932_at) / Fold change /veh TUBB4B (11761932_at) / RFU CAPN14 (11732068_a_at) / Fold change /veh CAPN14 (11732068_a_at) / RFU TMCC2 (11721928_a_at) / Fold change /veh TMCC2 (11721928_a_at) / RFU IRGQ (11745062_a_at) / Fold change /veh IRGQ (11745062_a_at) / RFU FAM174B (11720279_a_at) / Fold change /veh FAM174B (11720279_a_at) / RFU TMPRSS4 (11748680_a_at) / Fold change /veh TMPRSS4 (11748680_a_at) / RFU FAM212B (11763350_a_at) / Fold change /veh FAM212B (11763350_a_at) / RFU PLEKHG5 (11743358_a_at) / Fold change /veh PLEKHG5 (11743358_a_at) / RFU ZSCAN30 (11745921_a_at) / Fold change /veh ZSCAN30 (11745921_a_at) / RFU CMKLR1 (11741424_a_at) / Fold change /veh CMKLR1 (11741424_a_at) / RFU LOC101060620 /// MAPK8IP1 (11723275_at) / Fold change /veh LOC101060620 /// MAPK8IP1 (11723275_at) / RFU SPTSSB (11747773_x_at) / Fold change /veh SPTSSB (11747773_x_at) / RFU PRSS12 (11739890_at) / Fold change /veh PRSS12 (11739890_at) / RFU BIN1 (11741810_x_at) / Fold change /veh BIN1 (11741810_x_at) / RFU WNT11 (11732464_a_at) / Fold change /veh WNT11 (11732464_a_at) / RFU C10orf10 (11716521_a_at) / Fold change /veh C10orf10 (11716521_a_at) / RFU C5orf56 (11738089_at) / Fold change /veh C5orf56 (11738089_at) / RFU CYB561 (11721691_x_at) / Fold change /veh CYB561 (11721691_x_at) / RFU ANKRD19P (11752326_a_at) / Fold change /veh ANKRD19P (11752326_a_at) / RFU OR2T12 /// OR2T33 /// OR2T8 (11738714_s_at) / Fold change /veh OR2T12 /// OR2T33 /// OR2T8 (11738714_s_at) / RFU VCAN (11748164_a_at) / Fold change /veh VCAN (11748164_a_at) / RFU JSRP1 (11732532_at) / Fold change /veh JSRP1 (11732532_at) / RFU KRTAP10-11 (11738290_x_at) / Fold change /veh KRTAP10-11 (11738290_x_at) / RFU MYO3A (11730013_a_at) / Fold change /veh MYO3A (11730013_a_at) / RFU EBF3 (11725865_a_at) / Fold change /veh EBF3 (11725865_a_at) / RFU CAMK2N1 (11719241_x_at) / Fold change /veh CAMK2N1 (11719241_x_at) / RFU C5orf56 (11738088_a_at) / Fold change /veh C5orf56 (11738088_a_at) / RFU OLFML3 (11715873_a_at) / Fold change /veh OLFML3 (11715873_a_at) / RFU LOC100653217 /// NTM (11731650_a_at) / Fold change /veh LOC100653217 /// NTM (11731650_a_at) / RFU MAPK11 (11762145_a_at) / Fold change /veh MAPK11 (11762145_a_at) / RFU FIZ1 (11724087_x_at) / Fold change /veh FIZ1 (11724087_x_at) / RFU OASL (11726364_x_at) / Fold change /veh OASL (11726364_x_at) / RFU SOX15 (11748057_x_at) / Fold change /veh SOX15 (11748057_x_at) / RFU CD79A (11719716_a_at) / Fold change /veh CD79A (11719716_a_at) / RFU HIST1H1D (11736915_at) / Fold change /veh HIST1H1D (11736915_at) / RFU CASKIN2 (11723855_a_at) / Fold change /veh CASKIN2 (11723855_a_at) / RFU LOC730098 (11760151_x_at) / Fold change /veh LOC730098 (11760151_x_at) / RFU OR4N2 (11742367_at) / Fold change /veh OR4N2 (11742367_at) / RFU PRRT2 (11749266_a_at) / Fold change /veh PRRT2 (11749266_a_at) / RFU SNX32 (11753110_a_at) / Fold change /veh SNX32 (11753110_a_at) / RFU CDHR5 (11726645_a_at) / Fold change /veh CDHR5 (11726645_a_at) / RFU RCAN1 (11760418_a_at) / Fold change /veh RCAN1 (11760418_a_at) / RFU FAM167A (11723789_a_at) / Fold change /veh FAM167A (11723789_a_at) / RFU FAM26E (11764081_at) / Fold change /veh FAM26E (11764081_at) / RFU ISYNA1 (11749810_s_at) / Fold change /veh ISYNA1 (11749810_s_at) / RFU ACY1 (11761880_at) / Fold change /veh ACY1 (11761880_at) / RFU 11764098_at / Fold change /veh 11764098_at / RFU SAMD14 (11745864_x_at) / Fold change /veh SAMD14 (11745864_x_at) / RFU NPB (11741838_a_at) / Fold change /veh NPB (11741838_a_at) / RFU TMPRSS6 (11731388_a_at) / Fold change /veh TMPRSS6 (11731388_a_at) / RFU KRTAP10-2 (11738614_at) / Fold change /veh KRTAP10-2 (11738614_at) / RFU ARHGAP8 /// PRR5-ARHGAP8 (11727945_x_at) / Fold change /veh ARHGAP8 /// PRR5-ARHGAP8 (11727945_x_at) / RFU KRTAP5-7 /// NADSYN1 (11734609_at) / Fold change /veh KRTAP5-7 /// NADSYN1 (11734609_at) / RFU RASL12 (11751679_a_at) / Fold change /veh RASL12 (11751679_a_at) / RFU CDKN2B (11736163_a_at) / Fold change /veh CDKN2B (11736163_a_at) / RFU PRF1 (11729649_at) / Fold change /veh PRF1 (11729649_at) / RFU, ZNF638 /// ZNF638-IT1 / Fold change vs veh, ZNF638 /// ZNF638-IT1 / RFU, PANK3 / Fold change vs veh, PANK3 / RFU, SH3YL1 / Fold change vs veh, SH3YL1 / RFU, ZEB2 / Fold change vs veh, ZEB2 / RFU, NRIP1 / Fold change vs veh, NRIP1 / RFU, PTTG1IP / Fold change vs veh, PTTG1IP / RFU, CAPN2 / Fold change vs veh, CAPN2 / RFU, MED14 / Fold change vs veh, MED14 / RFU, SNORA58 / Fold change vs veh, SNORA58 / RFU, C1orf63 / Fold change vs veh, C1orf63 / RFU, LRRFIP1 / Fold change vs veh, LRRFIP1 / RFU, NDUFAF7 / Fold change vs veh, NDUFAF7 / RFU, SLC12A2 / Fold change vs veh, SLC12A2 / RFU, IBTK / Fold change vs veh, IBTK / RFU, ESF1 / Fold change vs veh, ESF1 / Fold change vs veh, TMEM50B / RFU, TAOK1 / Fold change vs veh, TAOK1 / RFU, ACBD3 / Fold change vs veh, ACBD3 / RFU, TMA16 / Fold change vs veh, TMA16 / RFU, RWDD3 / Fold change vs veh, RWDD3 / RFU, BCAT1 / Fold change vs veh, BCAT1 / RFU, EDEM3 / Fold change vs veh, EDEM3 / RFU, TMEM33 / Fold change vs veh, TMEM33 / RFU, WDR75 / Fold change vs veh, WDR75 / RFU, AHCTF1 / Fold change vs veh, AHCTF1 / RFU, TFRC / Fold change vs veh, TFRC / RFU, ZDHHC17 / Fold change vs veh, ZDHHC17 / RFU, NOM1 / Fold change vs veh, NOM1 / RFU, ARL8B / Fold change vs veh, ARL8B / RFU, ZBTB11 / Fold change vs veh, ZBTB11 / RFU, TAMM41 / Fold change vs veh, TAMM41 / RFU, KIAA1704 /// LOC100996395 / Fold change vs veh, KIAA1704 /// LOC100996395 / RFU, ING1 / Fold change vs veh, ING1 / RFU, TRMT61B / Fold change vs veh, TRMT61B / RFU, FUBP3 / Fold change vs veh, FUBP3 / RFU, TP53 / Fold change vs veh, TP53 / RFU, TNKS2 / Fold change vs veh, TNKS2 / RFU, ZFP14 / Fold change vs veh, ZFP14 / RFU, ACTR2 / Fold change vs veh, ACTR2 / RFU, PPP3R1 / Fold change vs veh, PPP3R1 / RFU, PIK3R1 / Fold change vs veh, PIK3R1 / RFU, HNRNPA1 / Fold change vs veh, HNRNPA1 / RFU, RNF170 / Fold change vs veh, RNF170 / RFU, ZNF28 / Fold change vs veh, ZNF28 / RFU, RNGTT / Fold change vs veh, RNGTT / RFU, OGT / Fold change vs veh, OGT / RFU, BRD1 / Fold change vs veh, BRD1 / RFU, MARS / Fold change vs veh, MARS / RFU, ZNF655 / Fold change vs veh, ZNF655 / RFU, FAHD1 / Fold change vs veh, FAHD1 / RFU, BDP1 / Fold change vs veh, BDP1 / RFU, LRRCC1 / Fold change vs veh, LRRCC1 / RFU, ARID1A / Fold change vs veh, ARID1A / RFU, ZNF146 / Fold change vs veh, ZNF146 / RFU, ZNF330 / Fold change vs veh, ZNF330 / RFU, GPN3 / Fold change vs veh, GPN3 / RFU, C9orf123 / Fold change vs veh, C9orf123 / RFU, N4BP2L2 / Fold change vs veh, N4BP2L2 / RFU, ARFIP1 / Fold change vs veh, ARFIP1 / RFU, FAM179B / Fold change vs veh, FAM179B / RFU, BCL10 / Fold change vs veh, BCL10 / RFU, UHRF1BP1L / Fold change vs veh, UHRF1BP1L / RFU, BET1 / Fold change vs veh, BET1 / RFU, CNOT2 / Fold change vs veh, CNOT2 / RFU, ZNF268 / Fold change vs veh, ZNF268 / Fold change vs veh, ZNF507 / RFU, DGCR2 / Fold change vs veh, DGCR2 / RFU, WDSUB1 / Fold change vs veh, WDSUB1 / Fold change vs veh, HSP90B1 /// MIR3652 / RFU, ADSS / Fold change vs veh, ADSS / RFU, GK / Fold change vs veh, GK / RFU, ZNF148 / Fold change vs veh, ZNF148 / RFU, TAF9 / Fold change vs veh, TAF9 / RFU, SLC1A5 / Fold change vs veh, SLC1A5 / RFU, SLMO2 / Fold change vs veh, SLMO2 / RFU, ABCC4 / Fold change vs veh, ABCC4 / RFU, LOC101060439 /// RAP1B / Fold change vs veh, LOC101060439 /// RAP1B / RFU, RFX7 / Fold change vs veh, RFX7 / RFU, GTPBP10 / Fold change vs veh, GTPBP10 / RFU, CNEP1R1 / Fold change vs veh, CNEP1R1 / RFU, BIVM-ERCC5 /// ERCC5 / Fold change vs veh, BIVM-ERCC5 /// ERCC5 / RFU, ILF3 / Fold change vs veh, ILF3 / RFU 11762660_at / Fold change /veh 11762660_at / RFU VCAN (11757783_s_at) / Fold change /veh VCAN (11757783_s_at) / RFU DDX43 (11728927_at) / Fold change /veh DDX43 (11728927_at) / RFU KRT8 (11758188_x_at) / Fold change /veh KRT8 (11758188_x_at) / RFU NKD1 (11759106_at) / Fold change /veh NKD1 (11759106_at) / RFU SRD5A1 (11742802_a_at) / Fold change /veh SRD5A1 (11742802_a_at) / RFU TPSAB1 /// TPSB2 (11721975_s_at) / Fold change /veh TPSAB1 /// TPSB2 (11721975_s_at) / RFU GSTM3 (11746129_a_at) / Fold change /veh GSTM3 (11746129_a_at) / RFU IL23R (11737362_x_at) / Fold change /veh IL23R (11737362_x_at) / RFU TMEM51 (11727254_a_at) / Fold change /veh TMEM51 (11727254_a_at) / RFU PIWIL2 (11732686_x_at) / Fold change /veh PIWIL2 (11732686_x_at) / RFU ORM1 (11744905_x_at) / Fold change /veh ORM1 (11744905_x_at) / RFU CCDC152 (11743942_at) / Fold change /veh CCDC152 (11743942_at) / RFU ECM1 (11717891_a_at) / Fold change /veh ECM1 (11717891_a_at) / RFU IL23R (11748794_a_at) / Fold change /veh IL23R (11748794_a_at) / RFU TNFAIP8L3 (11732012_x_at) / Fold change /veh TNFAIP8L3 (11732012_x_at) / RFU MBOAT4 (11741988_at) / Fold change /veh MBOAT4 (11741988_at) / RFU 11764193_at / Fold change /veh 11764193_at / RFU TMEM53 (11763286_at) / Fold change /veh TMEM53 (11763286_at) / RFU MAGEB2 (11727129_at) / Fold change /veh MAGEB2 (11727129_at) / RFU TMEM200A (11744735_a_at) / Fold change /veh TMEM200A (11744735_a_at) / RFU CCDC152 (11751479_a_at) / Fold change /veh CCDC152 (11751479_a_at) / RFU FAM211A (11726209_a_at) / Fold change /veh FAM211A (11726209_a_at) / RFU RGS16 (11746705_a_at) / Fold change /veh RGS16 (11746705_a_at) / RFU VCAN (11755009_s_at) / Fold change /veh VCAN (11755009_s_at) / RFU RHOB (11743442_s_at) / Fold change /veh RHOB (11743442_s_at) / RFU RGS16 (11720943_a_at) / Fold change /veh RGS16 (11720943_a_at) / RFU RGS16 (11720944_at) / Fold change /veh RGS16 (11720944_at) / RFU, VPS4B / Fold change vs veh, VPS4B / RFU, CREB1 / Fold change vs veh, CREB1 / RFU, DNAJC13 / Fold change vs veh, DNAJC13 / RFU, GNAQ / Fold change vs veh, GNAQ / RFU, CDK5R1 / Fold change vs veh, CDK5R1 / RFU, ZRANB3 / Fold change vs veh, ZRANB3 / RFU, CUL4A / Fold change vs veh, CUL4A / RFU, CCNY / Fold change vs veh, CCNY / RFU, UFL1 / Fold change vs veh, UFL1 / RFU, COG3 / Fold change vs veh, COG3 / RFU, DIAPH2 / Fold change vs veh, DIAPH2 / RFU, SKA2 / Fold change vs veh, SKA2 / RFU, AFF3 / Fold change vs veh, AFF3 / RFU, LMF1 / Fold change vs veh, LMF1 / RFU, IPO11 / Fold change vs veh, IPO11 / RFU, DFFB / Fold change vs veh, DFFB / RFU, FOXP1 / Fold change vs veh, FOXP1 / RFU, CARD8 / Fold change vs veh, CARD8 / RFU, STRN3 / Fold change vs veh, STRN3 / RFU, ADK / Fold change vs veh, ADK / RFU, RASSF2 / Fold change vs veh, RASSF2 / RFU, WIPF1 / Fold change vs veh, WIPF1 / RFU, LARP1B / Fold change vs veh, LARP1B / RFU, RASA1 / Fold change vs veh, RASA1 / RFU, RB1 / Fold change vs veh, RB1 / RFU, PPFIA1 / Fold change vs veh, PPFIA1 / RFU, MAT2A / Fold change vs veh, MAT2A / RFU, CCT5 / Fold change vs veh, CCT5 / RFU, WDR92 / Fold change vs veh, WDR92 / RFU, CUX1 / Fold change vs veh, CUX1 / RFU, TTC7A / Fold change vs veh, TTC7A / RFU, TMEM135 / Fold change vs veh, TMEM135 / RFU, DEPTOR / Fold change vs veh, DEPTOR / RFU, CPM / Fold change vs veh, CPM / RFU, DNAJB6 / Fold change vs veh, DNAJB6 / RFU, CACNA2D3 / Fold change vs veh, CACNA2D3 / RFU, DTX4 / Fold change vs veh, DTX4 / RFU, TFCP2 / Fold change vs veh, TFCP2 / RFU, GMCL1 /// GMCL1P1 / Fold change vs veh, GMCL1 /// GMCL1P1 / RFU, AEBP2 / Fold change vs veh, AEBP2 / RFU, SNHG1 /// SNORD22 /// SNORD25 /// SNORD26 /// SNORD27 /// SNORD28 /// SNORD29 /// SNORD31 / Fold change vs veh, SNHG1 /// SNORD22 /// SNORD25 /// SNORD26 /// SNORD27 /// SNORD28 /// SNORD29 /// SNORD31 / Fold change (Aza/veh), C12orf56 (ProbeSet 11735607_a_at) / Fold change (ACY-1035/veh), C12orf56 (ProbeSet 11735607_a_at) / Fold change (Aza/veh), FGFR1OP (ProbeSet 11751329_s_at) / Fold change (ACY-1035/veh), FGFR1OP (ProbeSet 11751329_s_at) / Fold change (Aza/veh), VPS36 (ProbeSet 11739960_a_at) / Fold change (ACY-1035/veh), VPS36 (ProbeSet 11739960_a_at) / RFU SYPL1 (11715823_x_at) / Fold change /veh SYPL1 (11715823_x_at) / RFU IGFBP7 (11715501_s_at) / Fold change /veh IGFBP7 (11715501_s_at) / RFU REEP3 (11722064_at) / Fold change /veh REEP3 (11722064_at) / RFU IGLL1 (11728026_x_at) / Fold change /veh IGLL1 (11728026_x_at): dose or concentration left out as unconfirmed
Details: ProbeSet 11748335_a_at; LIST B

Nc1ncn([C@@H]2O[C@H](CO)[C@@H](O)[C@H]2O)c(=O)n1 [azacitidine]
RFU, SLMO2: 144.00 RFU
